Patent EP2266984A1, “Pyrido[2,3-d]pyrimidines as Wnt antagonists for treatment of cancer and arthritis” (Deutsches Krebsforschungszentrum Stiftung des öffentlichen …, priority 2009, dated 2010)

How the values were obtained:
HFF-1 = assay: Cell line specific cytotoxicity, HFF-1 fibroblasts; type: cell-based, human; settings: 10 microM; HFF-1 cell line
Experimental: For examination of cell line-specific cytotoxicity, compounds were applied to human colorectal cancer cells (HCT116, denoted (1); SW480, denoted (2); Dld-1, denoted (3)) and human fibroblasts (HFF-1, denoted (4); HS-68, denoted (5)), cultured in Mc Coy's (1) and Dulbecco's Modified Eagles Medium ((2)-(5)), supplemented with 10% ((1)-(3)) and 20% ((4), (5)) fetal calf serum and 1% penicillin/streptomycin. Cells were grown in T75 flasks at 37 °C, 5% CO2 and trypsinized when 60-80% confluent by adding 2 ml of 0.25% Trypsin-EDTA solution. Cells were then re-suspended into culture medium yielding approx. 750 cells, suspended in 45 microl medium, were plated into each well of a black 384-well plate for fluorescence imaging experiments. […] Compound incubation was terminated by (a) fixation and (b) permeabilisation of cells, followed by (c) fluorescence labeling of cell nuclei for cytometric quantification or by immunocytochemistry for microscopic evaluation of cell morphology. […]
Cell line-specific cytotoxicity was quantified by counting the number of Hoechst labeled nuclei per well of a 384-well plate using a plate cytometer. Data obtained with the cytometer was analysed using standard data analysis software.
Identified hits were further evaluated by visual inspection of fluorescence micrographs obtained from imaging using a conventional fluorescence microscope.

Hek293T = assay: CellTiterGlo cytotoxicity assay in Hek293T; type: cell-based; settings: 24h after compound addition
Experimental: (§1) For examination of cytotoxicity in these cancer cell lines the commercial available CellTiterGlo® Reagent (Promega, USA) was used according to the manufactor.
(§2) Compounds were applied to Hek293T (denoted (1)) or HepG2 (denoted (2)), cultured in Dulbecco's Modified Eagles Medium, supplemented with 10% fetal calf serum and 1% penicillin/streptomycin. Cells were grown in T75 flasks at 37 °C, 5% CO2 and trypsinized when 60-80% confluent by adding 2 ml of 0.25% Trypsin-EDTA solution. Cells were then re-suspended into culture medium yielding approx. 4000 cells (1) or 4500 cells (2), suspended in 30 microl medium. 48h after cell seeding, compounds were added to yield the desired final concentrations. 24h after compound addition cytotoxicity was evaluated. For this purpose the media was removed and CellTiterGlo® was added according to the manufactors manual. In this assay the luciferase emission readout is directly correlated with the cellular amount of ATP, low luciferase emission thus is reflecting cytotoxicity of a compound. For the evaluation of the IC50 the compound was applied in increasing concentrations yielding final concentrations per well of 5nM - 100 microM.

HepG2 = assay: CellTiterGlo cytotoxicity assay in HepG2; type: cell-based; settings: 24h after compound addition
Experimental: as §1, §2

| Compound | Normalized toxicity values (Hek293T) (Hek293T; 0.005 microM) | Normalized toxicity values (Hek293T) (Hek293T; 0.015 microM) | Normalized toxicity values (Hek293T) (Hek293T; 0.046 microM) | Normalized toxicity values (Hek293T) (Hek293T; 0.137 microM) | Normalized toxicity values (Hek293T) (Hek293T; 0.412 microM) | Normalized toxicity values (Hek293T) (Hek293T; 1.235 microM) | Normalized toxicity values (Hek293T) (Hek293T; 3.704 microM) | Normalized toxicity values (Hek293T) (Hek293T; 11.111 microM) | Normalized toxicity values (Hek293T) (Hek293T; 33.333 microM) | Normalized toxicity values (Hek293T) (Hek293T; 100.000 microM) | Normalized toxicity values (HepG2) (HepG2; 0.005 microM) | Normalized toxicity values (HepG2) (HepG2; 0.015 microM) | Normalized toxicity values (HepG2) (HepG2; 0.046 microM) | Normalized toxicity values (HepG2) (HepG2; 0.137 microM) | Normalized toxicity values (HepG2) (HepG2; 0.412 microM) | Normalized toxicity values (HepG2) (HepG2; 1.235 microM) | Normalized toxicity values (HepG2) (HepG2; 3.704 microM) | Normalized toxicity values (HepG2) (HepG2; 11.111 microM) | Normalized toxicity values (HepG2) (HepG2; 33.333 microM) | Normalized toxicity values (HepG2) (HepG2; 100.000 microM) | other results |
| --- | --- | --- | --- | --- | --- | --- | --- | --- | --- | --- | --- | --- | --- | --- | --- | --- | --- | --- | --- | --- | --- |
| CCOC(=O)c1c(C)nc2c(c(N3CCN(C/C=C/c4ccccc4)CC3)nc(=O)n2-c2ccccc2)c1-c1ccccc1 [Example 153, 7-Methyl-2-oxo-1,5-diphenyl-4-[4-((E)-3-phenyl-allyl)-piperazin-1-yl]-1,2-dihydro-pyrido[2,3-d]pyrimidine-6-carboxylic acid ethyl ester] | 1.0725 | 1.0650 | 1.0425 | 0.9703 | 1.0800 | 1.0623 | 1.1125 | 1.1475 | 1.1375 | 0.0290 | 1.0700 | 1.0658 | 0.9725 | 0.9743 | 0.9480 | 0.9543 | 1.1225 | 1.2725 | 1.2650 | 0.0718 | Effect on normal cells (HFF-1) (HFF-1): not affected |
| CCOC(=O)c1c(C)nc2c(c(N3CCN(Cc4ccccc4F)CC3)nc(=O)n2-c2ccccc2)c1-c1ccccc1 [Example 150] | 1.1200 | 1.0780 | 1.0735 | 1.0278 | 1.0553 | 0.9703 | 1.1975 | 1.2900 | 1.3025 | 1.5500 | 1.1325 | 1.1350 | 1.0275 | 1.0350 | 0.9625 | 0.9870 | 1.0658 | 1.0800 | 1.1425 | 1.2175 | – |
| CCOC(=O)c1c(C)nc2c(c(N3CCN(C(c4ccc(F)cc4)c4ccc(F)cc4)CC3)nc(=O)n2-c2ccccc2)c1-c1ccccc1 [Example 157] | 1.1275 | 1.0600 | 1.1075 | 1.0975 | 0.9535 | 0.9633 | 1.0078 | 1.1475 | 1.3825 | 1.5650 | 1.1125 | 1.0775 | 1.1275 | 1.0175 | 0.9413 | 0.9785 | 0.9853 | 1.0043 | 1.1100 | 1.1575 | – |
